{
  "source": "ChEMBL document CHEMBL4251622",
  "about": "“Design, synthesis, and biological evaluation of polo-like kinase 1/eukaryotic elongation factor 2 kinase (PLK1/EEF2K) dual inhibitors for regulating breast cancer cells apoptosis and autophagy” (Eur J Med Chem, 2018)",
  "key": {"[1]": {"target": "Activin receptor type-1B (Homo sapiens) (UniProt P36896)", "experiment": "Inhibition of wild-type human ACVR1B (S187 to I505 residues) expressed in bacterial expression system assessed as residual activity at 1 uM by Kinomescan method relative to control"}, "[2]": {"target": "Proto-oncogene tyrosine-protein kinase Src (Homo sapiens) (UniProt P12931)", "sequence (P12931 2-536 limits assumed)": "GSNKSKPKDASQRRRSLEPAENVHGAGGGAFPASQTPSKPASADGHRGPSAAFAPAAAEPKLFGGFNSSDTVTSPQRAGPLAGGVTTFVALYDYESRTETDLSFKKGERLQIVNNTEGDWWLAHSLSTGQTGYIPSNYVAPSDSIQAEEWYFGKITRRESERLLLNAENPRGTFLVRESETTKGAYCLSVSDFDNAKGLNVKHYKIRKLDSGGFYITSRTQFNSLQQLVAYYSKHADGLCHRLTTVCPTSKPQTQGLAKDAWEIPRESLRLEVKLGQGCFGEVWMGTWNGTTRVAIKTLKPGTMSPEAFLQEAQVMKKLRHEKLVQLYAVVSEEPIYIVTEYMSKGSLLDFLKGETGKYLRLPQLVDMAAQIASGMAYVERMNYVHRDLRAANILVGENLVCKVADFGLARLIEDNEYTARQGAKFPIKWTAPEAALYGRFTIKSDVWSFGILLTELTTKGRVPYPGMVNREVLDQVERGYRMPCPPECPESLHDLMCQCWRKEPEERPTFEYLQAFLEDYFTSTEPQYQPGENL", "experiment": "Inhibition of wild-type human partial length SRC (L240 to L536 residues) expressed in bacterial expression system assessed as residual activity at 1 uM by Kinomescan method relative to control"}, "[3]": {"target": "Testis-specific serine/threonine-protein kinase 1 (Homo sapiens) (UniProt Q9BXA7)", "experiment": "Inhibition of wild-type human full length TSSK1B (M1 to Q367 residues) expressed in bacterial expression system assessed as residual activity at 1 uM by Kinomescan method relative to control"}, "[4]": {"target": "Non-receptor tyrosine-protein kinase TYK2 (Homo sapiens) (UniProt P29597)", "sequence (P29597 whole entry, the tested form may be a part)": "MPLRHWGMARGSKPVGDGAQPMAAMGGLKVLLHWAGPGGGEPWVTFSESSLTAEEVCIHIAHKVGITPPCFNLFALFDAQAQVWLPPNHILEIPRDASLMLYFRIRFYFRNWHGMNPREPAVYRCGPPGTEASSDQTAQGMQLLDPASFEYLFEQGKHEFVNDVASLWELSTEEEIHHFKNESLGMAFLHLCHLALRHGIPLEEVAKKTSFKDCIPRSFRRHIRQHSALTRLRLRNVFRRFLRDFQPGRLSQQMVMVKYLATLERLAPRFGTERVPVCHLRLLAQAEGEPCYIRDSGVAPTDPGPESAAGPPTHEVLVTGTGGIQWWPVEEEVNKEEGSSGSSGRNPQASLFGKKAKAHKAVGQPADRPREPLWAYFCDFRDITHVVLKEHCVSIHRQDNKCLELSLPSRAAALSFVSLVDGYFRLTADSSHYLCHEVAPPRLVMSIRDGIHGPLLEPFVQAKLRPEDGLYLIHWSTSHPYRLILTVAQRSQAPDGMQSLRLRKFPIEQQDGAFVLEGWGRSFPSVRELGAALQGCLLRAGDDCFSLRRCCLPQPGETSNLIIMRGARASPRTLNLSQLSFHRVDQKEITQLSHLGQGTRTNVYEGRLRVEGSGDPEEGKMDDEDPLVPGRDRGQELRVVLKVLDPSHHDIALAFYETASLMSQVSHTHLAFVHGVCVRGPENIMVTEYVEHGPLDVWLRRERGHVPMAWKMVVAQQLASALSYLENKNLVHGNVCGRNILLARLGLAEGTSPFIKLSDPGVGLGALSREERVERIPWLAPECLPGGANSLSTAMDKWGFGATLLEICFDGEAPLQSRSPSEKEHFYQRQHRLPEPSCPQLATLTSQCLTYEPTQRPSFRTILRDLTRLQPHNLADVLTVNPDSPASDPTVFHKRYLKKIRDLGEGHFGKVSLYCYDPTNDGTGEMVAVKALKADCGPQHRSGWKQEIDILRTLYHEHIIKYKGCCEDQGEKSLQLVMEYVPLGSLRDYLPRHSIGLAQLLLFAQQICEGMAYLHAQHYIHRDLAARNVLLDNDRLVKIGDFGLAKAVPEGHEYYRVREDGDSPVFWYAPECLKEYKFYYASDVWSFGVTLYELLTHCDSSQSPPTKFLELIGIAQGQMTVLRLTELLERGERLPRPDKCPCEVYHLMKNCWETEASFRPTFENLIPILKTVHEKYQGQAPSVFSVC", "experiment": "Inhibition of wild-type human partial length TYK2 JH1 catalytic domain (V877 to C1187 residues) expressed in mammalian expression system assessed as residual activity at 1 uM by Kinomescan method relative to control"}, "[5]": {"target": "Vascular endothelial growth factor receptor 2 (Homo sapiens) (UniProt P35968)", "sequence (P35968 whole entry, the tested form may be a part)": "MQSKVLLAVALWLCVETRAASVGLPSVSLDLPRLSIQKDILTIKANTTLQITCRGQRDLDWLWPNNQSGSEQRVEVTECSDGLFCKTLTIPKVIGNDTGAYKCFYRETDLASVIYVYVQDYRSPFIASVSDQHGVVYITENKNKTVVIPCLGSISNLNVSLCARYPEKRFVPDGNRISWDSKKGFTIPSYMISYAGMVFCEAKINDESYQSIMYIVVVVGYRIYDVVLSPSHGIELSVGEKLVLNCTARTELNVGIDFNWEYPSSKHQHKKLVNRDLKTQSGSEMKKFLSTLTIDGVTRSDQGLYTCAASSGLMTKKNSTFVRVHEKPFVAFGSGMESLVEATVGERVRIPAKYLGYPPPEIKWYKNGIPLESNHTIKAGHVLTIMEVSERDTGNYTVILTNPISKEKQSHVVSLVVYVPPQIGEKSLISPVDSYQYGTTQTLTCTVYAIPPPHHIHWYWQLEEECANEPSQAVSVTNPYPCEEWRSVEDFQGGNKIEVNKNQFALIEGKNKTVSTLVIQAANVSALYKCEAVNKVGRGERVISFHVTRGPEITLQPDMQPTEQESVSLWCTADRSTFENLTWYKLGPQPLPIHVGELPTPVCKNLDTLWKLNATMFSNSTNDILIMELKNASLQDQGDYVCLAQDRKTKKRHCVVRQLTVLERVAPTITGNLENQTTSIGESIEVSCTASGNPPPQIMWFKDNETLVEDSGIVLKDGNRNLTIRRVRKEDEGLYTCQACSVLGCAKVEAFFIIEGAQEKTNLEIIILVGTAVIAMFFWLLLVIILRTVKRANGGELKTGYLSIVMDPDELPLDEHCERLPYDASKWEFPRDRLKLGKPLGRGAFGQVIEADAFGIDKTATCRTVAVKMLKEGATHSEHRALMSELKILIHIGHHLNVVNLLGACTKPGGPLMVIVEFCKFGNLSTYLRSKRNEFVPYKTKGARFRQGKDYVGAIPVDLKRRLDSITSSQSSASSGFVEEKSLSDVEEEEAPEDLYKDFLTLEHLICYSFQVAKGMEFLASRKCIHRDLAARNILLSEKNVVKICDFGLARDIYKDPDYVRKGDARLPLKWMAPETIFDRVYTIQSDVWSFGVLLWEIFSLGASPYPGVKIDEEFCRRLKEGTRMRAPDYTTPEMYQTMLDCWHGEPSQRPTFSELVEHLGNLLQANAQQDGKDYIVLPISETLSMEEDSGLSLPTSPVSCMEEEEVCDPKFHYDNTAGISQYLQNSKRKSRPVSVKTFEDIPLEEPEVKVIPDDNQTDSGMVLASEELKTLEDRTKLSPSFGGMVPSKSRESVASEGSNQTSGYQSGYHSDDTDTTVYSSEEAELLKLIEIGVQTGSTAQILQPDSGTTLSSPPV", "experiment": "Inhibition of wild-type human partial length VEGFR2 (R787 to P1253 residues) expressed in mammalian expression system assessed as residual activity at 1 uM by Kinomescan method relative to control"}, "[6]": {"target": "Inhibitor of nuclear factor kappa-B kinase subunit beta (Homo sapiens) (UniProt O14920)", "experiment": "Inhibition of wild-type human full length IKK-beta (M1 to S756 residues) expressed in mammalian expression system assessed as residual activity at 1 uM by Kinomescan method relative to control"}, "[7]": {"target": "Tyrosine-protein kinase JAK2 (Homo sapiens) (UniProt O60674)", "experiment": "Inhibition of wild-type human partial length JAK2 JH1 catalytic domain (A829 to G1132 residues) expressed in mammalian expression system assessed as residual activity at 1 uM by Kinomescan method relative to control"}, "[8]": {"target": "Mitogen-activated protein kinase 1 (Homo sapiens) (UniProt P28482)", "experiment": "Inhibition of wild-type human full length ERK2 (M1 to S360 residues) expressed in bacterial expression system assessed as residual activity at 1 uM by Kinomescan method relative to control"}, "[9]": {"target": "Mitogen-activated protein kinase 9 (Homo sapiens) (UniProt P45984)", "experiment": "Inhibition of wild-type human full length JNK2 (M1 to Q382 residues) expressed in mammalian expression system assessed as residual activity at 1 uM by Kinomescan method relative to control"}, "[10]": {"target": "Angiopoietin-1 receptor (Homo sapiens) (UniProt Q02763)", "experiment": "Inhibition of wild-type human partial length TIE2 (N804 to T1112 residues) expressed in bacterial expression system assessed as residual activity at 1 uM by Kinomescan method relative to control"}, "[11]": {"tested_on": "BT-483", "experiment": "Effect on total EEF2 protein expression in human BT-483 cells at 5 to 10 uM by Western blot analysis", "type": "ADME, cell-based", "details": "bt-483, 10 µM"}, "[12]": {"target": "Serine/threonine-protein kinase TNNI3K (Homo sapiens) (UniProt Q59H18)", "sequence (Q59H18 whole entry, the tested form may be a part)": "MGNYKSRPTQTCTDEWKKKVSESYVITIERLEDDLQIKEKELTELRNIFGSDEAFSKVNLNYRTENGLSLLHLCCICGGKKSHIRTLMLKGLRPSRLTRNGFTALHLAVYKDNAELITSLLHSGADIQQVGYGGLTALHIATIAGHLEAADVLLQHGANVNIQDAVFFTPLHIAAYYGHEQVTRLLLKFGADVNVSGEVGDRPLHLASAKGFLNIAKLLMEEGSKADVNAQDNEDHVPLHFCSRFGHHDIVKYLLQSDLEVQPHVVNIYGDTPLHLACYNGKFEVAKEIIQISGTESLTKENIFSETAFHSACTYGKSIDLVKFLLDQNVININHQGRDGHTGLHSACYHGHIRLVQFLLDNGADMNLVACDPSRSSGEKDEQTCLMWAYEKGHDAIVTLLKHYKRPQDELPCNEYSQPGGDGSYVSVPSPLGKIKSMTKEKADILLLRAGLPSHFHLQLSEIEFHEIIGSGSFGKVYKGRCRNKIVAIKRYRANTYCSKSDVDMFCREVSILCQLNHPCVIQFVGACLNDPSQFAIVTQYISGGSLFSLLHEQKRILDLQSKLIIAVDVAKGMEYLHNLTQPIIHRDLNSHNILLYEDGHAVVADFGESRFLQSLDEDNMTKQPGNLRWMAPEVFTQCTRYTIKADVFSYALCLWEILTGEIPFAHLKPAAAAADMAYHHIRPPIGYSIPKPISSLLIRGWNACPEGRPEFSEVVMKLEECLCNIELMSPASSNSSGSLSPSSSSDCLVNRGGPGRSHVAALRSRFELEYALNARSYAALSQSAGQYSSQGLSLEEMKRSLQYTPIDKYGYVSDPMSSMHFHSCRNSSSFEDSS", "experiment": "Inhibition of wild-type human full length TNNI3K (M1 to S835 residues) expressed in bacterial expression system assessed as residual activity at 1 uM by Kinomescan method relative to control"}, "[13]": {"target": "MAP kinase-activated protein kinase 2 (Homo sapiens) (UniProt P49137)", "sequence (P49137 whole entry, looked up, the tested form may be a part)": "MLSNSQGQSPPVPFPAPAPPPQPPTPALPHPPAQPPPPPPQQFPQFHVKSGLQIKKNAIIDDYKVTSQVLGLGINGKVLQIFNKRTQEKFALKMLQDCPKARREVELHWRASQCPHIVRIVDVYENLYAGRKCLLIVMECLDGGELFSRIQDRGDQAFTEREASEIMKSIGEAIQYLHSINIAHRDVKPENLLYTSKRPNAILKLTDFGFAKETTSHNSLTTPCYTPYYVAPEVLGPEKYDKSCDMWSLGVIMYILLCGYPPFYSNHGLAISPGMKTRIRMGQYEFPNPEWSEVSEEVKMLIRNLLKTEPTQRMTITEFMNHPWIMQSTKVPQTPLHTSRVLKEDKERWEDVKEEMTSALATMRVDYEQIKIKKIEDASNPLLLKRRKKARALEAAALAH", "experiment": "Inhibition of wild-type human partial length MAPKAPK2 (V48 to D345 residues) expressed in bacterial expression system assessed as residual activity at 1 uM by Kinomescan method relative to control"}, "[14]": {"target": "High affinity nerve growth factor receptor (Homo sapiens) (UniProt P04629)", "sequence (P04629 33-796 limits assumed)": "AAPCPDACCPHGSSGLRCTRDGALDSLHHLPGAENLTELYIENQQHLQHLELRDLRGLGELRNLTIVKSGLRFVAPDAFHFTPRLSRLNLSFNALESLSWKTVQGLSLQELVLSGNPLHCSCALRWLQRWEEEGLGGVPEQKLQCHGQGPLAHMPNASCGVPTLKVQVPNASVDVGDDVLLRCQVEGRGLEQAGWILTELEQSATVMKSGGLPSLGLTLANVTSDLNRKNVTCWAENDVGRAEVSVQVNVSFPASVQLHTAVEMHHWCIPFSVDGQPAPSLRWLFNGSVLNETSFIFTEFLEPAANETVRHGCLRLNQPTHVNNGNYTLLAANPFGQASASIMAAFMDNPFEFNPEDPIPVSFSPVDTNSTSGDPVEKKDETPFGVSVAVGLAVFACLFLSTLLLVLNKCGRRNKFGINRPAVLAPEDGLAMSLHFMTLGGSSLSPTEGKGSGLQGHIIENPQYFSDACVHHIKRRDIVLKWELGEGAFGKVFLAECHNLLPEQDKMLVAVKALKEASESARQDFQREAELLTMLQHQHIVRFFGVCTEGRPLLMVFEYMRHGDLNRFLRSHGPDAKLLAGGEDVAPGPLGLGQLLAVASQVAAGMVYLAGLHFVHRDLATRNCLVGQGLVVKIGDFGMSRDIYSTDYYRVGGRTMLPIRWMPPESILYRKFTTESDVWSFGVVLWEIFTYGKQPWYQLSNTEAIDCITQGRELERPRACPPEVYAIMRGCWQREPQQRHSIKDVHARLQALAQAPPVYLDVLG", "experiment": "Inhibition of wild-type human partial length TRKA (G475 to G790 residues) expressed in mammalian expression system assessed as residual activity at 1 uM by Kinomescan method relative to control"}, "[15]": {"target": "NUAK family SNF1-like kinase 2 (Homo sapiens) (UniProt Q9H093)", "experiment": "Inhibition of wild-type human partial length SNARK (P22 to A333 residues) expressed in mammalian expression system assessed as residual activity at 1 uM by Kinomescan method relative to control"}, "[16]": {"target": "Cyclin-dependent kinase 7 (Homo sapiens) (UniProt P50613)", "experiment": "Inhibition of wild-type human full length CDK7 (M1 to L344 residues) expressed in mammalian expression system assessed as residual activity at 1 uM by Kinomescan method relative to control"}},
  "data": [
    {"smiles": "CCNc1cc(-c2ccc(NC(=O)Nc3cccc(Cl)c3)cc2C(F)(F)F)ccn1", "values": [
      {"measurement": "Activity", "setting": "[1]", "value": 85, "unit": "%"},
      {"measurement": "Activity", "setting": "[2]", "value": 93, "unit": "%"},
      {"measurement": "Activity", "setting": "[3]", "value": 64, "unit": "%"},
      {"measurement": "Activity", "setting": "[4]", "value": 65, "unit": "%"},
      {"measurement": "Activity", "setting": "[5]", "value": 60, "unit": "%"},
      {"measurement": "Activity", "setting": "[6]", "value": 92, "unit": "%"},
      {"measurement": "Activity", "setting": "[7]", "value": 86, "unit": "%"},
      {"measurement": "Activity", "setting": "[8]", "value": 80, "unit": "%"},
      {"measurement": "Activity", "setting": "[9]", "value": 93, "unit": "%"},
      {"measurement": "Activity", "setting": "[10]", "value": 94, "unit": "%"},
      {"measurement": "Activity", "setting": "[11]", "value": "Non-Toxic"},
      {"measurement": "Activity", "setting": "[12]", "value": 70, "unit": "%"},
      {"measurement": "Activity", "setting": "[13]", "value": 95, "unit": "%"},
      {"measurement": "Activity", "setting": "[14]", "value": 84, "unit": "%"},
      {"measurement": "Activity", "setting": "[15]", "value": 69, "unit": "%"},
      {"measurement": "Activity", "setting": "[16]", "value": 85, "unit": "%"}
    ]}
  ]
}
